Assay results published in the supplement of paper PMC6723410.

The molecules below were run on GUMC-403 (assay: viability at highest tested concentration (max response) relative to DMSO (% of DMSO control); higher = less cytotoxic). Details: library / dose series: MIPE library, 11-point 1:3 dilution; top concentration 13.4 µM; 48 h.
Method in brief: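 Conditionally reprogrammed GUMC-403 papilloma cells from a patient were plated at 700/well in 5 μL F + Y medium in 1536-well plates and left overnight at 37 °C. A pin tool then added 23 nL of library compounds as an 11-point 1:3 series, for 48 h. CellTiter-Glo luminescence was read on a ViewLux and scaled with vehicle wells set to 100% and empty wells to 0%. Each value gives viability at the highest tested concentration relative to vehicle control.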

Compound | viability
CN[C@H]1[C@H](O[C@@H]2[C@H](O[C@@H]3[C@@H](O)[C@@H](O)[C@@H](NC(=N)N)[C@@H](O)[C@H]3NC(=N)N)O[C@H](C)[C@@]2(O)C=O)O[C@@H](CO)[C@@H](O)[C@H]1O | 114

Same assay, conditions: library / dose series: MIPE library, 11-point 1:3 dilution; top concentration 23 µM; 48 h

Compound | viability
CN[C@@H]1CN(C[C@H]1OC)C2=NC3=C(C=C2)C(=O)C(=C\N3C4=NC=CS4)/C(O)=O | 94.4
CN1CCCN(CC1)C2=CC=C3C(=O)\C(=C/4SC5=C(C=CC=C5)N4C3=N2)C(=O)NCC6=CN=C(C)C=N6 | 101
C[C@H]1CN(C[C@@H](C)N1)C2=C(F)C3=C(C(=C2F)N)C(=O)\C(=C/N3C4CC4)C(O)=O | 133

Same assay, conditions: library / dose series: MIPE library, 11-point 1:3 dilution; top concentration 46.1 µM; 48 h

Compound | viability
COc1cc2c(Nc3ccc(NC(=O)c4ccccc4)cc3)ncnc2cc1OCCCN1CCOCC1 | 117
Cn1cnc2c(F)c(Nc3ccc(Br)cc3Cl)c(C(=O)NOCCO)cc21 | 73.7
C#Cc1cccc(Nc2ncnc3cc(OC)c(OCCCCCCC(=O)NO)cc23)c1 | 33.9
CN(C)CCCN\C1=C\2C(=O)N(C)C(=O)\N=C2N(C)C3=C1C=CC=C3 | 107
CC=CC1=C(C(=O)O)N2C(=O)[C@@H](NC(=O)[C@H](N)c3ccc(O)cc3)[C@H]2SC1.O | 147
CO/N=C(/C(=O)N[C@@H]1C(=O)N2C(C(=O)O)=C(CSC(=O)c3ccco3)CS[C@H]12)c1csc(N)n1 | 172
CN1CCC(CC1)=C2C3=C(C=CC=C3)\C=C/C4=C2C=CC=C4 | 111
CC(=O)Nc1ccc(OC[C@](C)(O)C(=O)Nc2ccc([N+](=O)[O-])c(C(F)(F)F)c2)cc1 | 88.4
NC[C@H]1O[C@H](O[C@H]2[C@H](O)[C@@H](O[C@H]3O[C@H](CO)[C@@H](O)[C@H](N)[C@H]3O)[C@H](N)C[C@@H]2N)[C@H](N)C[C@@H]1O | 125
COc1cc(OC)c(OC)cc1C=O | 107
CC1(C)Cc2c(-c3ccccc3)c(-c3ccc(Cl)cc3)c(CC(=O)O)n2C1 | 102
O=[N+]([O-])c1ncc[nH]1 | 82.9
O=[S+]([O-])(NCCNC/C=C/c1ccc(Br)cc1)c1cccc2cnccc12 | 72.3
O=C(NC[C@H](O)CO)c1ccncc1Nc1ccc(I)cc1F | 72.6
CC(C)Cn1cnc2c(N)nc3ccccc3c21 | 116
CCCCCN(CCC12CC3CC(CC(C3)C1)C2)C(=O)NCCCc1ccncc1 | 89.8
CC(C)(F)C[C@H](N[C@@H](c1ccc(-c2ccc([S+](C)(=O)[O-])cc2)cc1)C(F)(F)F)C(=O)NC1(C#N)CC1 | 110
COC1=CC(=C2C(=O)N(COC/3=C/C(=O)N4\C=C/C=C(OCCN5CCCCC5)\C4=N3)[S+]([O-])(=O)C2=C1)C(C)C | 122
N[S+]([O-])(=O)C1=CC=C(NC/2=C/C(=O)C3=CC=CC=C3C2=O)C=C1 | 142
CCN1C[C@H](C)[N]2C(=C(O)C3=C2\C(=N/N(CC4=CC=C(F)C(=C4)Cl)C3=O)C(=O)NC)C1=O | 123
CCCCC[C@H](O)/C=C/[C@H]1[C@H](O)CC(=O)[C@@H]1CCCCCCC(=O)O | 107
CC(NCCc1ccc(O)cc1)C(O)c1ccc(O)cc1 (stereo unspecified) | 124
Oc1cc2c(cc1O)C1c3ccc(O)c(O)c3OCC1(O)C2 (stereo unspecified) | 129
C[C@@H]1C[C@@H]([C@H](O)CC2CC(=O)NC(=O)C2)C(=O)[C@@H](C)C1 | 89.5

Compound | viability
OCc1ccc(-c2nn(Cc3ccccc3)c3ccccc23)o1 | 94.3
NC\1=N\C(=O)N(\C=C1)[C@@H]2O[C@H](CO)[C@@H](O)[C@H]2O | 128
CC1(C)CCC(=C(CN2CCN(CC2)C3=CC=C(C=C3)C(=O)N[S+]([O-])(=O)C4=CC(=C(N[C@H](CCN5CCOCC5)CSC6=CC=CC=C6)C=C4)[S+]([O-])(=O)C(F)(F)F)\C1)/C7=CC=C(Cl)C=C7 | 97
OC(CN1CCN(c2cccc(Cl)c2)CC1)C(c1ccccc1)c1ccccc1 (stereo unspecified) | 92
Cc1ccccc1C(OCCN(C)C)c1ccccc1 (stereo unspecified) | 127
C[C@H]1[C@@H](CC(C[C@H]2O[C@@H]3O[C@]4(C)CC[C@H]5[C@H](C)CC[C@@H]([C@H]2C)[C@@]35OO4)C[S+](=O)([O-])c2ccc(COC(=O)N(C)C)cc2)O[C@@H]2O[C@]3(C)CC[C@H]4[C@H](C)CC[C@@H]1[C@@]24OO3 | 104
Cc1ccccc1N1C(=O)c2cc([S+](N)(=O)[O-])c(Cl)cc2NC1C (stereo unspecified) | 105
CC[C@@H](C)[C@H](NC(=O)[C@H](CC1CCCCC1)NC(=O)c1ccno1)C(=O)N1CCC2(CCc3ccccc32)CC1 | 90.5
O=C(Nc1c(Cl)cncc1Cl)c1ccc(OC(F)F)c(OCC2CC2)c1 | 125
CC(C)(Cc1ccc2ccccc2c1)NC[C@@H](O)COc1cccc(Cl)c1C#N | 106
C[N]1C=C(C=N1)C2=CC=C3N=CC\4=C(N(C(=O)\C=C4)C5=CC6=C(CCN6C(=O)C=C)C=C5)C3=C2 | 104
CN(C)Cc1c(C(=O)NCCOc2ccc(C(=O)NO)cc2)oc2ccccc12 | 82.5
C=C[C@H]1CN2CCC1C[C@@H]2[C@@H](O)c1ccnc2ccccc12 (stereo partly specified) | 66.8
C[C@@H](NC(=O)c1ncnc(N)c1Cl)c1ncc(C(=O)Nc2cc(C(F)(F)F)c(Cl)cn2)s1 | 109
C[C@@H]1CC[C@@]2(CC[C@]3(C)\C(=C/C[C@@H]4[C@@]5(C)C[C@@H](O)[C@H](O)[C@@](C)(CO)[C@@H]5CC[C@@]34C)[C@@H]2[C@H]1C)C(O)=O | 114
COC(=O)[C@@H]1CC2=CC(=O)CC[C@]2(C)[C@@]23O[C@@H]2C[C@@]2(C)[C@@H](CC[C@@]24CCC(=O)O4)[C@H]13 | 128
CCc1nc(-c2cccc(C)c2)c(-c2ccnc(NC(=O)c3ccccc3)c2)s1 | 108
OC[C@H]1OCC(O1)[N@@]2C=CC(N)=NC2=O (stereo partly specified) | 114
CNC(=O)c1c(-c2ccc(F)cc2)oc2cc(N(CCO)[S+](C)(=O)[O-])c(C3CC3)cc12 | 69.1
COc1ccccc1[C@H](c1cccc2ccccc12)[C@@](C)(C#N)C(=O)N1CCC(c2cccc(C(F)(F)F)c2)CC1 | 86.3
O=C1CCCC(=O)C1C(=O)c1ccc(C(F)(F)F)cc1[N+](=O)[O-] | 104
CCN(CC)CCCCNc1nc2cc(Cl)c(Cl)cc2nc1-c1ccc(-c2cccs2)s1 | 92.1
O=[S+]([O-])(c1cccc2cnccc12)N1CCCNCC1 | 128
O=S(=O)([O-])CCS.[Na+] | 147

Compound | viability
CC[S+](=O)([O-])N1CC(CC#N)(n2cc(-c3ncnc4[nH]ccc34)cn2)C1 | 144
COC(=O)N[C@H](C(=O)N1CCC[C@H]1c1ncc(-c2ccc(-c3ccc(-c4cnc([C@@H]5CCCN5C(=O)[C@@H](NC(=O)OC)C(C)C)[nH]4)cc3)cc2)[nH]1)C(C)C | 138
NC(=O)c1cccc2cn(-c3ccc([C@@H]4CCCNC4)cc3)nc12 | 98.4
CC1OC(OC/2=C(/OC3=C(C(=CC(=C3)O)O)C2=O)C4=CC=C(O)C=C4)C(O)C(OC(C)=O)C1OC(C)=O (stereo unspecified) | 116
CC(C)(C)NC(=O)[C@H]1CC[C@H]2[C@@H]3CC[C@H]4NC(=O)\C=C/[C@]4(C)[C@H]3CC[C@]12C | 66.2
N\C1=N\C2=C(N=C[N]2COCCO)C(=O)N1 | 117
CCC[C@H](Nc1nc(-c2ccc(NC(=O)NCC)c(OC)c2)ncc1C)c1cccnc1 | 94
Clc1ccc(C2(c3ccc(-c4cn[nH]c4)cc3)CCNCC2)cc1 | 59.9
C[C@@H]1CN[C@H]2[C@@H](C)[C@@]\3(CC[C@H]\4[C@@H]5C/C=C6/C[C@@H](O)CC[C@]6(C)[C@H]5CC4=C3C)O[C@@H]2C1 | 116
C[N]1C=C(C2=CC=CC=C12)\C3=C(\C(=O)NC3=O)C4=C[N](C5CCN(CC5)CC6=NC=CC=C6)C7=C4C=CC=C7 | 128
NC(=O)C1CCCc2c1[nH]c1ccc(Cl)cc21 (stereo unspecified) | 96
Cc1cc(CN2CCN(c3c(Br)cnc4[nH]c(-c5ccc(N6CCN(C)CC6)cc5)nc34)CC2)no1 | 108
O=C(CC12CC3CC(CC(C3)C1)C2)Nc1cccc2nc(NCCNCCO)ccc12 | 69.8
CN(C)C(=O)C(CCN1CCC(O)(c2ccc(Cl)cc2)CC1)(c1ccccc1)c1ccccc1 | 103
CC(=O)O[C@@]12CO[C@@H]1C[C@H](O)[C@]3(C)[C@@H]2[C@H](OC(=O)C4=CC=CC=C4)[C@]5(O)C[C@H](OC(=O)C(O)[C@@H](NC(=O)OC(C)(C)C)C6=CC=CC=C6)C(=C(/[C@@H](O)C3=O)C5(C)C)/C (stereo partly specified) | 103
O=C(NCC1CCCCN1)c1cc(OCC(F)(F)F)ccc1OCC(F)(F)F (stereo unspecified) | 87.2
COC1=CC=C(C=C1)C/2=C/OC3=C(C(=CC(=C3)O)O)C2=O | 120
CCOc1ccccc1OCCNC(C)Cc1ccc(OC)c([S+](N)(=O)[O-])c1 (stereo unspecified) | 135
Cc1nc(-c2ccc(-c3ccc(C(=O)N4CCc5cc6c(cc54)C4(CCN(C)CC4)CO6)cc3)c(C)c2)no1 | 124
CC[C@H]1/C=C\C=C/C[C@@H](C)[C@H](O)[C@@](C)(O)C(=O)[C@@H](C)[C@H](O)[C@@H](C)C(=O)[C@@H](C)[C@H](O)[C@@H](C)/C=C/C(=O)O[C@@H]2[C@H](C)[C@H](CC1)O[C@]1(CC[C@H](C)[C@H](C[C@@H](C)O)O1)[C@H]2C | 146
Clc1ccc(-c2nc3sccn3c2/C=N/OCc2ccc(Cl)c(Cl)c2)cc1 | 85.8
CCN(c1ccccc1)c1cc(NC)[n+](C)c(C)n1 | 115
C[C@]\1(CCS\C(=N1)N)C2=CC(=C(F)C=C2F)C3=CN=CN=C3 | 80.2
CCOC(=O)Nc1ccc(NCc2ccc(F)cc2)cc1N | 81.8
